According to patent publication US20180147183A1, “USE OF R-OXIRACETAM IN PHARMACEUTICAL FIELD” (Chongqing Runze Pharmaceutical Co., Ltd., priority 2015, published 2018):
Values joined by “and” are separate entries in the source; they are usually repeats but may differ in a detail not shown here. Equal values may be shown once. Marks after values point to notes of the source that are not given here.

Assays:
[1] = test system: Pentetrazol (PTZ) ignited rat epilepsy model; experiment: Pentetrazol (PTZ)-ignited rat epilepsy model; assay type: in vivo, SD rats; conditions: for mortality rate / Numbers of deaths (Number): 10 days
Procedure: Rats were injected intraperitoneally with PTZ at a dose of 35 mg/kg (7 mg/ml, 0.5 ml/100 g body weight) for sub-convulsions three times weekly. The animals are weighed before each ip, and observed for behavioral changes after ip. within 1-2 h. Behavioral scoring was carried out according to the revised Racine score. Three consecutive occurrences of seizures of stage IV and above indicate successful ignition.
The animals successfully ignited were chosen to be grouped. The animals were randomly divided into 4 groups, 8-10/group. […] 3 times of clinical dose were chosen, that is, 500 mg/kg. […] The dosage is 1 ml/100 g, continuous intragastrical administration of 10 days. Specific dose settings are as follows:
PTZ 35 mg/kg. The animals are observed for behavioral changes within 2 h. Behavioral scoring was carried out according to the revised Racine score, continuous administration for 10 days, grading standards as mentioned above.
The seizures were recorded daily ip PTZ within 2 h. The seizure levels, latencies, mortality were recorded, and compared with the model control group.

[2] = Pharmacokinetics and bioavailability in dogs, plasma determined by LC-MS; assay type: in vivo, dog
Procedure: A. The Pharmacokinetics of R-Oxiracetam In Vivo and Studies of Bioavailability
4 Determination Methods of Oxiracetam and R-Oxiracetam in Plasma by LC-MS
4.1 Chromatographic Conditions
Mobile phase: methanol: water (5:95)
Column: ZORBAX SB-Aq (2.1×100 mm 3.5μ)
Column temperature: 30° C.;
Injection volume: […] 4.2 Mass Spectrometry Detection Parameters
Mass spectrometry ionization method: electrospray ionization (ESI); ion polarity Positive; scanning mode for multiple reactions monitoring (MRM); scanning time of 100 ms. The ionic reactions used for quantitative analysis were m/z (oxiracetam) m/z 159.0→m/z 113.9 and m/z 143.1→m/z 126.0 (piracetam), respectively.
20 μL of the drug-containing the plasma sample is taken in a 1.5 mL Eppendorf tube. 20 μL of piracetam (20 μg/mL) of the internal standard solution is added, and mixed by the vortex mixer for 30s. Then, 500 μL of acetonitrile is added thereto, vortex shaken for 5 min and centrifugated at 16000 rpm for 10 min. The supernatant from the centrifugation was passed through 1 ml of SPE C 18E column and the filtrate was collected, put into 38° C. constant temperature water bath and dried by nitrogen gas. 300 μL of mobile phase was dissolved and the injection volume was 10 μL.
20 μL of blank dog plasma was added into the working solution prepared from the oxiracetam standard. The concentrations of oxiracetam in the plasma were 0.167, 0.33, 0.37, 1.33, 2.67, 4.0, 6.67, 13.33 and 26.67 μg/mL, respectively. A sample was made for each concentration respectively according to the procedures“4.4 Extraction of plasma samples”. The ratio of the peak area (As) of oxiracetam to the peak area (Ai) of the internal standard piracetam (f=As/Ai) were calculated, and perform linear regression using the concentration (C) to the ratio (f). The weight parameter 1/x, and the oxiracetam regression equation: y=5.2117X−0.76985 (r=0.9970, weight 1/x).
20 μL of blank dog plasma was added into the working solution prepared from the R-oxiracetam standard. The concentrations of R-oxiracetam in the plasma were 0.167, 0.33, 0.37, 1.33, 2.67, 4.0, 6.67, 13.33 and 26.67 μg/mL, respectively. A sample was made for each concentration respectively according to the procedures “4.4 Extraction of plasma samples”. The ratio of the peak area (As) of R-oxiracetam to the peak area (Ai) of the internal standard piracetam (f=As/Ai) were calculated, and perform linear regression using the concentration (C) to the ratio (f). The weight parameter 1/x, and the oxiracetam regression equation: y=1.6811X−0.031244(r=0.9949, weight 1/x).

Q: For NC(=O)CN1C[C@H](O)CC1=O [R-oxiracetam, (R)-4-hydroxy-2-oxo-1-pyrrolidineacetamide], which “Seizure latency (X ± SD)” value ([1]; High-dose 360 mg/kg daily, D1) is on record?
A: Its value is 3.83 ± 1.17 m.

Q: What about the “occurrence rates of stage IV or above seizures” value (from here on “occurrence rates”) ([1]; High-dose 360 mg/kg daily, D1) of the same compound?
A: The value was 4/6 (66.7) %.

Q: And the “Seizure latency (X ± SD)” value ([1]; High-dose 360 mg/kg daily, D2)?
A: Its value is 5.00 ± 0.89 m.

Q: And the “occurrence rates” value ([1]; High-dose 360 mg/kg daily, D2)?
A: The value was 3/6(50.0) %.

Q: And the “Seizure latency (X ± SD)” value ([1]; High-dose 360 mg/kg daily, D3)?
A: Its value is 6.17 ± 1.17 m.

Q: And the “occurrence rates” value ([1]; High-dose 360 mg/kg daily, D3)?
A: The value was 3/6 (50.0) %.

Q: And the “Seizure latency (X ± SD)” value ([1]; High-dose 360 mg/kg daily, D4)?
A: The value was 6.50 ± 1.05 m.

Q: And the “occurrence rates” value ([1]; High-dose 360 mg/kg daily, D4)?
A: Its value is 2/6 (33.3) %.

Q: And the “Seizure latency (X ± SD)” value ([1]; High-dose 360 mg/kg daily, D5)?
A: Its value is 7.17 ± 0.75 m.

Q: And the “occurrence rates” value ([1]; High-dose 360 mg/kg daily, D5)?
A: Its value is 1/6 (16.7) %.

Q: What about the “Seizure latency (X ± SD)” value ([1]; High-dose 360 mg/kg daily, D6) of the same compound?
A: The value was 7.83 ± 0.75 m.

Q: And the “occurrence rates” value ([1]; High-dose 360 mg/kg daily, D6)?
A: The value was 1/6 (16.7) %.

Q: What about the “Seizure latency (X ± SD)” value ([1]; High-dose 360 mg/kg daily, D7) of the same compound?
A: Its value is 8.33 ± 1.03 m.

Q: What about the “occurrence rates” value ([1]; High-dose 360 mg/kg daily, D7) of the same compound?
A: The value was 0/6** (0) %.

Q: And the “Seizure latency (X ± SD)” value ([1]; High-dose 360 mg/kg daily, D8)?
A: The value was 8.83 ± 0.98 m.

Q: And the “occurrence rates” value ([1]; High-dose 360 mg/kg daily, D8)?
A: The value was 0/6** (0) %.

Q: What about the “Seizure latency (X ± SD)” value ([1]; High-dose 360 mg/kg daily, D9) of the same compound?
A: The value was 8.83 ± 0.75 m.

Q: What about the “occurrence rates” value ([1]; High-dose 360 mg/kg daily, D9) of the same compound?
A: The value was 0/6* (0) %.

Q: And the “Seizure latency (X ± SD)” value ([1]; High-dose 360 mg/kg daily, D10)?
A: The value was 9.83 ± 0.75 m.

Q: And the “occurrence rates” value ([1]; High-dose 360 mg/kg daily, D10)?
A: The value was 0/6* (0) %.

Q: What about the mortality rate ([1]; High-dose 360 mg/kg intragastric) of the same compound?
A: The mortality rate was 0%.

Q: And the “Numbers of deaths (Number)” value ([1]; High-dose 360 mg/kg intragastric, 6 animals, 360 mg/kg)?
A: Its value is “No animal died”.

Q: And the “Numbers of deaths (Number)” value ([1]; High-dose 360 mg/kg intragastric, 6 animals, listed as R-Oxiracetam, 360 mg/kg)?
A: Its value is 0.

Q: What about the “Seizure latency (X ± SD)” value ([1]; Low-dose 120 mg/kg daily, D1) of the same compound?
A: The value was 3.57 ± 1.51 m.

Q: And the “occurrence rates” value ([1]; Low-dose 120 mg/kg daily, D1)?
A: Its value is 4/7 (57.1) %.

Q: And the “Seizure latency (X ± SD)” value ([1]; Low-dose 120 mg/kg daily, D2)?
A: The value was 4.57 ± 1.72 m.

Q: And the “occurrence rates” value ([1]; Low-dose 120 mg/kg daily, D2)?
A: The value was 4/6(66.7) %.

Q: What about the “Seizure latency (X ± SD)” value ([1]; Low-dose 120 mg/kg daily, D3) of the same compound?
A: Its value is 5.00 ± 1.15 m.

Q: And the “occurrence rates” value ([1]; Low-dose 120 mg/kg daily, D3)?
A: The value was 3/6 (50.0) %.

Q: And the “Seizure latency (X ± SD)” value ([1]; Low-dose 120 mg/kg daily, D4)?
A: The value was 4.86 ± 1.07 m.

Q: What about the “occurrence rates” value ([1]; Low-dose 120 mg/kg daily, D4) of the same compound?
A: The value was 2/6 (33.3) %.

Q: What about the “Seizure latency (X ± SD)” value ([1]; Low-dose 120 mg/kg daily, D5) of the same compound?
A: Its value is 5.43 ± 0.98 m.

Q: And the “occurrence rates” value ([1]; Low-dose 120 mg/kg daily, D5)?
A: Its value is 2/6 (33.3) %.

Q: What about the “Seizure latency (X ± SD)” value ([1]; Low-dose 120 mg/kg daily, D6) of the same compound?
A: The value was 6.29 ± 1.11 m.

Q: What about the “occurrence rates” value ([1]; Low-dose 120 mg/kg daily, D6) of the same compound?
A: The value was 2/6 (33.3) %.

Q: And the “Seizure latency (X ± SD)” value ([1]; Low-dose 120 mg/kg daily, D7)?
A: The value was 6.86 ± 1.07 m.

Q: What about the “occurrence rates” value ([1]; Low-dose 120 mg/kg daily, D7) of the same compound?
A: Its value is 1/6* (16.7) %.

Q: What about the “Seizure latency (X ± SD)” value ([1]; Low-dose 120 mg/kg daily, D8) of the same compound?
A: The value was 7.14 ± 1.07 m.

Q: And the “occurrence rates” value ([1]; Low-dose 120 mg/kg daily, D8)?
A: Its value is 1/6* (16.7) %.

Q: And the “Seizure latency (X ± SD)” value ([1]; Low-dose 120 mg/kg daily, D9)?
A: Its value is 7.71 ± 0.76 m.

Q: And the “occurrence rates” value ([1]; Low-dose 120 mg/kg daily, D9)?
A: Its value is 0/6* (0) %.

Q: And the “Seizure latency (X ± SD)” value ([1]; Low-dose 120 mg/kg daily, D10)?
A: The value was 8.43 ± 0.98 m.

Q: And the “occurrence rates” value ([1]; Low-dose 120 mg/kg daily, D10)?
A: Its value is 0/6* (0) %.

Q: What about the mortality rate ([1]; Low-dose 120 mg/kg intragastric) of the same compound?
A: The mortality rate was 14.3%.

Q: What about the “Numbers of deaths (Number)” value ([1]; Low-dose 120 mg/kg intragastric, 7 animals, 120 mg/kg) of the same compound?
A: The value was “No animal died”.

Q: And the “Numbers of deaths (Number)” value ([1]; Low-dose 120 mg/kg intragastric, 7 animals, listed as R-Oxiracetam, 120 mg/kg)?
A: Its value is 1.

Q: And the “Concentration in dog blood C” value ([2]; Time 0 h, individual dogs, one table per dog)?
A: Its value is 0 ng/mL.

Q: And the “Concentration in dog blood C” value ([2]; Time 0.5 h, individual dogs, one table per dog)?
A: The value was 30410 ng/mL and 9013 ng/mL and 51070 ng/mL and 7637 ng/mL and 33000 ng/mL and 74670 ng/mL.

Q: And the “Concentration in dog blood C” value ([2]; Time 1 h, individual dogs, one table per dog)?
A: The value was 50870.6 ng/mL and 35550 ng/mL and 70640 ng/mL and 48190 ng/mL and 54750 ng/mL and 112164.2 ng/mL.

Q: And the “Concentration in dog blood C” value ([2]; Time 1.5 h, individual dogs, one table per dog)?
A: Its value is 110222.9 ng/mL and 37880 ng/mL and 76280 ng/mL and 74560 ng/mL and 61910 ng/mL and 58530 ng/mL.

Q: What about the “Concentration in dog blood C” value ([2]; Time 6 h, individual dogs, one table per dog) of the same compound?
A: The value was 7637 ng/mL and 14070 ng/mL and 12210 ng/mL and 4648 ng/mL and 10140 ng/mL and 4409 ng/mL.

Q: What about the “Concentration in dog blood C” value ([2]; Time 8 h, individual dogs, one table per dog) of the same compound?
A: The value was 3684 ng/mL and 4731 ng/mL and 9036 ng/mL and 2318 ng/mL and 4967 ng/mL and 2215 ng/mL.

Q: What about the “Concentration in dog blood C” value ([2]; Time 12 h, individual dogs, one table per dog) of the same compound?
A: Its value is 1610 ng/mL and 1913 ng/mL and 2205 ng/mL and 1461.5 ng/mL and 3568 ng/mL and 1333 ng/mL.

Q: And the “Concentration in dog blood C” value ([2]; Time 24 h, individual dogs, one table per dog)?
A: Its value is 0 ng/mL.

Q: What about the concentration at 0 h ([2]; dog, plasma, Time 0 h, individual dogs, one table per dog, read-out: Concentration in dog blood C) of the same compound?
A: Its concentration at 0 h is 0 ng/mL.

Q: What about the concentration at 4 h ([2]; dog, plasma, Time 4 h, individual dogs, one table per dog, read-out: Concentration in dog blood C) of the same compound?
A: The concentration at 4 h was 18400 ng/mL.

Q: What about the concentration at 24 h ([2]; dog, plasma, Time 24 h, individual dogs, one table per dog, read-out: Concentration in dog blood C) of the same compound?
A: The concentration at 24 h was 0 ng/mL.

Q: What about the Cmax ([2]; dog, plasma, dogs, mean ± SD) of the same compound?
A: The Cmax was 85800 ± 20000 ng/mL.

Q: What about the Tmax ([2]; dog, plasma, dogs, mean ± SD) of the same compound?
A: The Tmax was 2.04 ± 0.401 h.

Q: And the bioavailability ([2]; dog, plasma, dogs, with oxiracetam as a reference, read-out: relative bioavailability)?
A: Its bioavailability is 112 ± 11.6%.
